Source: PMC11965401 (Nature Communications, 2025)
One block for each molecule: values may come before it.

What was measured:
CoREST1^NT2-HDAC2 = molecular target: T1, CoREST1^NT2-HDAC2 (Homo sapiens, UniProt Q92769); assay: microscale thermophoresis, competition with labelled KBTBD4 R313PRR; conditions: blocks KBTBD4 R313PRR binding to HDAC2; HDAC2 catalytic site; pH 7.5, 25 °C
T1 construct: untagged full-length HDAC2 1-488 co-expressed with CoREST1 ELM2-SANT1 71-259 (C-terminal FLAG/10xHis) in Expi293F, purified; with REST corepressor 1

[1] = molecular target: T2, KBTBD4^WT with CoREST1^NT2-HDAC2 (ternary complex) (Homo sapiens, UniProt Q92769+Q9NVX7); assay: microscale thermophoresis, labelled KBTBD4 WT; assay type: binding
T2 construct: FLAG-KBTBD4 17-534 (near full length, dimer, N-terminal 3xFLAG); untagged full-length HDAC2 1-488 co-expressed with CoREST1 ELM2-SANT1 71-259 carrying C-terminal FLAG/10xHis; Expi293F; purified; complexes 2:1:1, also 2:1 and 2:2 KBTBD4:HDAC2 by cryo-EM; with REST corepressor 1

[2] = molecular target: FLAG-KBTBD4^R313PRR (17-536 a.a.), full-length dimer (human (from the printed UniProt entry)) (UniProt Q9NVX7); assay: MST; unlabelled partner titrated into 40 nM RED-NHS-labelled KBTBD4 variant, no compound; 50 mM HEPES pH 7.5, 150 mM NaCl, 10% glycerol, 5 mM MgCl2, 0.05% Tween-20, 0.1 mM TCEP; 25 °C; apparent KD; triplicates
[3] = molecular target: FLAG-KBTBD4^R313PRR (17-536 a.a.), full-length dimer (human (from the printed UniProt entry)), Q9NVX7; assay: cryo-EM structure; 4 µM KBTBD4^R313PRR mixed with 4 µM CoREST1^NT2-HDAC2, 50 mM HEPES pH 7.5, 150 mM NaCl, 10% glycerol, 5 mM MgCl2, 0.5 mM TCEP, 15 min on ice, not crosslinked; conditions: remark: other sources report otherwise
[4] = molecular target: FLAG-KBTBD4^WT (17-534 a.a.) (human (from the printed UniProt entry)), Q9NVX7; assay: cryo-EM structure; 4 µM KBTBD4^WT, 4 µM CoREST1^NT2-HDAC2 and 40 µM UM171, 50 mM HEPES pH 7.5, 150 mM NaCl, 5% glycerol, 5 mM MgCl2, 0.5 mM TCEP, crosslinked with BS3; conditions: remark: other sources report otherwise

Molecule: CC(=O)Nc1ccc(C(=O)Nc2cc(-c3cccs3)ccc2N)cc1 [BRD6929]
microscale thermophoresis, competition with labelled KBTBD4 R313PRR (CoREST1^NT2-HDAC2): the addition of BRD6929 abrograted all KBTBD4^R313PRR-HDAC2 binding in the MST assay

Kd [1]: 2.3 µM
Molecule: COC(=O)c1ccc2c(c1)[nH]c1nc(Cc3ccccc3)nc(NCCCN3CCCC3)c12 [compound 13, S234984]

Kd [2]: 0.75 µM
Molecule: CoREST1^NT2-HDAC2 complex (recombinant, co-expressed) (from UniProt Q92769-1 1-488)

Kd [1]: 26 µM
Molecule: Cn1cc(-c2ccc3c(c2)[nH]c2nc(Cc4ccccc4)nc(NC4CCC(N)CC4)c23)cn1 (stereo not drawn) [compound 2, compound (2)]

stoichiometry N [3]: 2
B1: FLAG-KBTBD4^R313PRR (17-536 a.a.), full-length dimer, Q9NVX7-2 17-534 (natural protein)
chain: MESPEEPGASMDENYFVNYTFKDRSHSGRVAQGIMKLCLEEELFADVTISVEGREFQLHRLVLSAQSCFFRSMFTSNLKEAHNRVIVLQDVSESVFQLLVDYIYHGTVKLRAEELQEIYEVSDMYQLTSLFEECSRFLARTVQVGNCLQVMWLADRHSDPELYTAAKHCAKTHLAQLQNTEEFLHLPHRLLTDIISDGVPCSQNPTEAIEAWINFNKEEREAFAESLRTSLKEIGENVHIYLIGKESSRTHSLAVSLHCAEDDSISVSGQNSLCHQITAACKHGGDLYVVGGSIPRPRRMWKCNNATVDWEWCAPLPRDRLQHTLVSVPGKDAIYSLGGKTLQDTLSNAVIYYRVGDNVWTETTQLEVAVSGAAGANLNGIIYLLGGEENDLDFFTKPSRLIQCFDTETDKCHVKPYVLPFAGRMHAAVHKDLVFIVAEGDSLVCYNPLLDSFTRLCLPEAWSSAPSLWKIASCNGSIYVFRDRYKKGDANTYKLDPATSAVTVTRGIKVLLTNLQFVLA
modifications: here or on the partner: RED-NHS 2nd generation fluorescent label, in the MST experiments only; RED-NHS 2nd generation fluorescent label, in the MST experiments only

stoichiometry N [4]: 2
B2: FLAG-KBTBD4^WT (17-534 a.a.), Q9NVX7-2 17-534 (natural protein)
chain: MESPEEPGASMDENYFVNYTFKDRSHSGRVAQGIMKLCLEEELFADVTISVEGREFQLHRLVLSAQSCFFRSMFTSNLKEAHNRVIVLQDVSESVFQLLVDYIYHGTVKLRAEELQEIYEVSDMYQLTSLFEECSRFLARTVQVGNCLQVMWLADRHSDPELYTAAKHCAKTHLAQLQNTEEFLHLPHRLLTDIISDGVPCSQNPTEAIEAWINFNKEEREAFAESLRTSLKEIGENVHIYLIGKESSRTHSLAVSLHCAEDDSISVSGQNSLCHQITAACKHGGDLYVVGGSIPRRMWKCNNATVDWEWCAPLPRDRLQHTLVSVPGKDAIYSLGGKTLQDTLSNAVIYYRVGDNVWTETTQLEVAVSGAAGANLNGIIYLLGGEENDLDFFTKPSRLIQCFDTETDKCHVKPYVLPFAGRMHAAVHKDLVFIVAEGDSLVCYNPLLDSFTRLCLPEAWSSAPSLWKIASCNGSIYVFRDRYKKGDANTYKLDPATSAVTVTRGIKVLLTNLQFVLA
modifications: here or on the partner: RED-NHS 2nd generation fluorescent label, in the MST experiments only; RED-NHS 2nd generation fluorescent label, in the MST experiments only
